Measurements from ChEMBL document CHEMBL4229332, “Novel multi-target azinesulfonamides of cyclic amine derivatives as potential antipsychotics with pro-social and pro-cognitive effects” (Eur J Med Chem, 2018).

Key:
Cavia porcellus [1] = assay: Cardiotoxicity in guinea pig assessed as effect on PR interval time at 5 mg/kg, ip measured after 10 mins by ECG analysis (reference value: 58.8 to 63.8 milliseconds); type: toxicity, organism-based; conditions: in vivo
Cavia porcellus [2] = assay: Cardiotoxicity in guinea pig assessed as effect on PR interval time at 5 mg/kg, ip measured after 40 mins by ECG analysis (reference value: 58.8 to 63.8 milliseconds); type: toxicity, organism-based; conditions: in vivo
[3] = Ratio of drug level in brain to plasma in Wistar rat at 3 mg/kg, ip measured after 30 mins by LC-MS/MS analysis; type: ADME, organism-based; conditions: read-out: BPR
Cavia porcellus [4] = assay: Cardiotoxicity in guinea pig assessed as effect on frequence of heart rate at 5 mg/kg, ip measured after 60 mins by ECG analysis (reference value: 262 to 296 /min); type: toxicity, organism-based; conditions: in vivo, 1 h
Cavia porcellus [5] = assay: Cardiotoxicity in guinea pig assessed as effect on QRS interval time at 5 mg/kg, ip measured after 20 mins by ECG analysis (reference value: 26.2 to 31.6 milliseconds); type: toxicity, organism-based; conditions: in vivo
Cavia porcellus [6] = assay: Cardiotoxicity in guinea pig assessed as effect on frequence of heart rate at 5 mg/kg, ip measured after 50 mins by ECG analysis (reference value: 262 to 296 /min); type: toxicity, organism-based; conditions: in vivo
Cavia porcellus [7] = assay: Cardiotoxicity in guinea pig assessed as effect on RR interval time at 5 mg/kg, ip measured after 60 mins by ECG analysis (reference value: 208.4 to 238.4 milliseconds); type: toxicity, organism-based; conditions: in vivo, 1 h
Cavia porcellus [8] = assay: Cardiotoxicity in guinea pig assessed as effect on QTc interval time at 5 mg/kg, ip measured after 10 mins by ECG analysis (reference value: […] to […] milliseconds); type: toxicity, organism-based; conditions: in vivo
Cavia porcellus [9] = assay: Cardiotoxicity in guinea pig assessed as effect on PR interval time at 5 mg/kg, ip measured after 50 mins by ECG analysis (reference value: 58.8 to 63.8 milliseconds); type: toxicity, organism-based; conditions: in vivo
Cavia porcellus [10] = assay: Cardiotoxicity in guinea pig assessed as effect on PR interval time at 5 mg/kg, ip measured after 30 mins by ECG analysis (reference value: 58.8 to 63.8 milliseconds); type: toxicity, organism-based; conditions: in vivo, 0.5 h
Cavia porcellus [11] = assay: Cardiotoxicity in guinea pig assessed as effect on QT interval time at 5 mg/kg, ip measured after 30 mins by ECG analysis (reference value: 127.6 to 131.2 milliseconds); type: toxicity, organism-based; conditions: in vivo, 0.5 h
Cytochrome P450 2C19 = Cytochrome P450 2C19 (Homo sapiens, UniProt P33261); assay: Inhibition of human supersome CYP2C19 using perazine as substrate assessed as perazine N-demethylation after 30 mins by HPLC-UV detection; type: ADME
Cavia porcellus [12] = assay: Cardiotoxicity in guinea pig assessed as effect on QRS interval time at 5 mg/kg, ip measured after 80 mins by ECG analysis (reference value: 26.2 to 31.6 milliseconds); type: toxicity, organism-based; conditions: in vivo
[13] = Intrinsic clearance in rat liver microsomes at 20 uM at 37 degC measured after 120 mins in presence of NADPH-regenerating system by UPLC-MS analysis; type: ADME, microsome; conditions: read-out: CLH
Cytochrome P450 2D6 = Cytochrome P450 2D6 (Homo sapiens, UniProt P10635); assay: Inhibition of human supersome CYP2D6 using bufuralol as substrate assessed as bufuralol 1'-hydroxylation after 30 mins by HPLC-UV detection; type: ADME
Cavia porcellus [14] = assay: Cardiotoxicity in guinea pig assessed as effect on QT interval time at 5 mg/kg, ip measured after 70 mins by ECG analysis (reference value: 127.6 to 131.2 milliseconds); type: toxicity, organism-based; conditions: in vivo
Cavia porcellus [15] = assay: Cardiotoxicity in guinea pig assessed as effect on QRS interval time at 5 mg/kg, ip measured after 40 mins by ECG analysis (reference value: 26.2 to 31.6 milliseconds); type: toxicity, organism-based; conditions: in vivo
Cytochrome P450 2C9 = Cytochrome P450 2C9 (Homo sapiens, UniProt P11712); assay: Inhibition of human supersome CYP2C9 using diclofenac as substrate assessed as diclofenac 4'-hydroxylation after 30 mins by HPLC-UV detection; type: ADME
Cavia porcellus [16] = assay: Cardiotoxicity in guinea pig assessed as effect on PR interval time at 5 mg/kg, ip measured after 70 mins by ECG analysis (reference value: 58.8 to 63.8 milliseconds); type: toxicity, organism-based; conditions: in vivo
Cavia porcellus [17] = assay: Cardiotoxicity in guinea pig assessed as effect on frequence of heart rate at 5 mg/kg, ip measured after 70 mins by ECG analysis (reference value: 262 to 296 /min); type: toxicity, organism-based; conditions: in vivo
Cavia porcellus [18] = assay: Cardiotoxicity in guinea pig assessed as effect on RR interval time at 5 mg/kg, ip measured after 30 mins by ECG analysis (reference value: 208.4 to 238.4 milliseconds); type: toxicity, organism-based; conditions: in vivo, 0.5 h
[19] = Ratio of drug level in brain to plasma in Wistar rat at 3 mg/kg, ip measured after 15 mins by LC-MS/MS analysis; type: ADME, organism-based; conditions: read-out: BPR
[20] = Drug level in Wistar rat plasma at 3 mg/kg, ip measured after 30 mins by LC-MS/MS analysis; type: ADME, organism-based
[21] = molecular target: 5-hydroxytryptamine receptor 7 (Homo sapiens, UniProt P34969); assay: biochemical
Description: Displacement of [3H]-5-CT from human 5-HT7R expressed in HEK293 cell membranes after 1 hr at 37 degC by microbeta counting method

Cavia porcellus [22] = assay: Cardiotoxicity in guinea pig assessed as effect on QRS interval time at 5 mg/kg, ip measured after 70 mins by ECG analysis (reference value: 26.2 to 31.6 milliseconds); type: toxicity, organism-based; conditions: in vivo
Rattus norvegicus [23] = assay: Effect on failure incidence during conditioned avoidance response test in Sprague-Dawley rat at 3 mg/kg, ip administered 60 mins prior to testing; type: ADME, organism-based; conditions: in vivo, 1 h
Cavia porcellus [24] = assay: Cardiotoxicity in guinea pig assessed as effect on frequence of heart rate at 5 mg/kg, ip measured after 20 mins by ECG analysis (reference value: 262 to 296 /min); type: toxicity, organism-based; conditions: in vivo
Rattus norvegicus [25] = species on record: Rattus norvegicus; assay: animal or person; conditions: Sprague-Dawley, ip, read-out: MED
Description: Reversal of ketamine-induced working social withdrawal in ip dosed Sprague-Dawley rat pretreated for 60 mins followed by ketamine administration

Cavia porcellus [26] = assay: Cardiotoxicity in guinea pig assessed as effect on RR interval time at 5 mg/kg, ip measured after 10 mins by ECG analysis (reference value: 208.4 to 238.4 milliseconds); type: toxicity, organism-based; conditions: in vivo
[27] = Ratio of drug level in brain to plasma in Wistar rat at 3 mg/kg, ip measured after 60 mins by LC-MS/MS analysis; type: ADME, organism-based; conditions: read-out: BPR
[28] = Drug level in Wistar rat brain at 3 mg/kg, ip measured after 30 mins by LC-MS/MS analysis; type: ADME, organism-based; conditions: read-out: Drug uptake
Cavia porcellus [29] = assay: Cardiotoxicity in guinea pig assessed as effect on QT interval time at 5 mg/kg, ip measured after 80 mins by ECG analysis (reference value: 127.6 to 131.2 milliseconds); type: toxicity, organism-based; conditions: in vivo
Cavia porcellus [30] = assay: Cardiotoxicity in guinea pig assessed as effect on QRS interval time at 5 mg/kg, ip measured after 50 mins by ECG analysis (reference value: 26.2 to 31.6 milliseconds); type: toxicity, organism-based; conditions: in vivo
[31] = Drug level in Wistar rat brain at 3 mg/kg, ip measured after 15 mins by LC-MS/MS analysis; type: ADME, organism-based; conditions: read-out: Drug uptake
Cavia porcellus [32] = assay: Cardiotoxicity in guinea pig assessed as effect on QTc interval time at 5 mg/kg, ip measured after 70 mins by ECG analysis (reference value: […] to […] milliseconds); type: toxicity, organism-based; conditions: in vivo

Chain of Cytochrome P450 2C19 (P33261 whole entry): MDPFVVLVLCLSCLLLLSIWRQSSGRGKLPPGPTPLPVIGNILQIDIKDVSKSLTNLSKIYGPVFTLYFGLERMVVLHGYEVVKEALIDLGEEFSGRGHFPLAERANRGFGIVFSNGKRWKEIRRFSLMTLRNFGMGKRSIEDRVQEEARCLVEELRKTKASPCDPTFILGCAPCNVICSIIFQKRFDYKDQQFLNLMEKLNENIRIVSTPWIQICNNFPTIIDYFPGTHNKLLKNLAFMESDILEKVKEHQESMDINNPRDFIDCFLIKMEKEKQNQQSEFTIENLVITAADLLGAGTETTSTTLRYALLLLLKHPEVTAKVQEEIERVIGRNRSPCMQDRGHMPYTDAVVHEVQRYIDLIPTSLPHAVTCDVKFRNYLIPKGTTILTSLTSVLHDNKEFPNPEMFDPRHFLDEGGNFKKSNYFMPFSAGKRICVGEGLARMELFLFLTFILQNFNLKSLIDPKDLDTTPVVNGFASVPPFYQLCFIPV
Chain of Cytochrome P450 2D6 (P10635 whole entry): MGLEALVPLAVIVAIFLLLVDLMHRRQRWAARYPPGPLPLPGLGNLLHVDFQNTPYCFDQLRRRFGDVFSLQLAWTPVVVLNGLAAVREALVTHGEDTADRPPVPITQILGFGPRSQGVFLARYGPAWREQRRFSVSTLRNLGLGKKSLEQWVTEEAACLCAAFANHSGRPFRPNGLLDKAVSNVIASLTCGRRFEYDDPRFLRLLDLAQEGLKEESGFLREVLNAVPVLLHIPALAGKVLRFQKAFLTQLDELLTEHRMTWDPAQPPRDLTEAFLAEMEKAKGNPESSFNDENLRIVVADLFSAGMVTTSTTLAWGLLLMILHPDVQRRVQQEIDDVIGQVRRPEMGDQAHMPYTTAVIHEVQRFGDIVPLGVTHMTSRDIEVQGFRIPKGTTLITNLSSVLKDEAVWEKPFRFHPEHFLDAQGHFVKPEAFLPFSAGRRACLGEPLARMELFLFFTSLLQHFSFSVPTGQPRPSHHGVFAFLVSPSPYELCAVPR
Chain of Cytochrome P450 2C9 (P11712 whole entry): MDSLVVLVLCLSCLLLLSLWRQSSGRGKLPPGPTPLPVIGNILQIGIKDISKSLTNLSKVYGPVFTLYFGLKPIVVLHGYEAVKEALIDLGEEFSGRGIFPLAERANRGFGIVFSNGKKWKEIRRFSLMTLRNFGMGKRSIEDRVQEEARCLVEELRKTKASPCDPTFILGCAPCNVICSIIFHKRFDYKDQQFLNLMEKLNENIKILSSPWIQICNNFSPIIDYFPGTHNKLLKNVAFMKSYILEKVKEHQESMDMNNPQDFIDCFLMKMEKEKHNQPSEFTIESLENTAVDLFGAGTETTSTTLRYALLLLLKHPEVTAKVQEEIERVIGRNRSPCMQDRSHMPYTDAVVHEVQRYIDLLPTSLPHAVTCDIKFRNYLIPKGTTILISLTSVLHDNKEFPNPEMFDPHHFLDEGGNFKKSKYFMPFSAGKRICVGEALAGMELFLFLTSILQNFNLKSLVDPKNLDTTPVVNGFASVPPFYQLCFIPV
Chain of 5-hydroxytryptamine receptor 7 (P34969 whole entry): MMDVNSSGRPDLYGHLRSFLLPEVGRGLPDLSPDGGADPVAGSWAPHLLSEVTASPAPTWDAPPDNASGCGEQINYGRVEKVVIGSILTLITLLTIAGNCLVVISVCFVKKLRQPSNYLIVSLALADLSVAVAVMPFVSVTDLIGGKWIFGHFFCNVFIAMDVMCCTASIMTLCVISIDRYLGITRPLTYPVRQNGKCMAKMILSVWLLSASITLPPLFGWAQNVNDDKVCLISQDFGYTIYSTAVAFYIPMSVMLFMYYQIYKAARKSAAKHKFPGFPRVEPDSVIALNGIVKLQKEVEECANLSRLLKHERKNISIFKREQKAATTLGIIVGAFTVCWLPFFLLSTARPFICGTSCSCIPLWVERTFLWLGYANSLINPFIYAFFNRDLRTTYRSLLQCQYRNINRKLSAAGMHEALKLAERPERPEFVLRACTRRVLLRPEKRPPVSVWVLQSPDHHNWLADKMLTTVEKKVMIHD

Compound | Time (Cavia porcellus [1]) [ms] | Time (Cavia porcellus [2]) [ms] | Kp at 0.5 h [3] | Activity (Cavia porcellus [4]) [min⁻¹] | Time (Cavia porcellus [5]) [ms] | Activity (Cavia porcellus [6]) [min⁻¹] | Time (Cavia porcellus [7]) [ms] | Time (Cavia porcellus [8]) [ms] | Time (Cavia porcellus [9]) [ms] | Time (Cavia porcellus [10]) [ms] | Time (Cavia porcellus [11]) [ms] | IC50 (Cytochrome P450 2C19) [µM] | Time (Cavia porcellus [12]) [ms] | microsomal CLint at 20 µM [13] [µL/min/mg] | IC50 (Cytochrome P450 2D6) [µM] | Time (Cavia porcellus [14]) [ms] | Time (Cavia porcellus [15]) [ms] | IC50 (Cytochrome P450 2C9) [µM] | Time (Cavia porcellus [16]) [ms] | Activity (Cavia porcellus [17]) [min⁻¹] | also measured
O=S(=O)(c1cncc2ccccc12)N1CCC[C@H]1CCN1CCN(c2nsc3ccccc23)CC1 | 59 | 61 | 1.33 | 288 | 26 | 288 | 210.4 | 272.2 | 60 | 58.8 | 128.8 | 50 | 26 | 1.73 | > 100 | 125.4 | 27.6 | 100 | 60.8 | 287 | Time (Cavia porcellus [18]): 212.6 ms; Kp at 0.25 h [19]: 0.59; concentration at 0.5 h [20]: 177 nM; Ki [21]: 0.009 µM; Time (Cavia porcellus [22]): 27.8 ms; Activity (Rattus norvegicus [23]): Non-Toxic; Activity (Cavia porcellus [24]): 296 min⁻¹; minimal effective dose (Rattus norvegicus [25]): 3 mg/kg; Time (Cavia porcellus [26]): 202 ms; Kp at 1 h [27]: 0.96; concentration at 0.5 h [28]: 177 nM; Time (Cavia porcellus [29]): 125.6 ms; Time (Cavia porcellus [30]): 27 ms; concentration at 0.25 h [31]: 153 nM; Time (Cavia porcellus [32]): 274.6 ms
O=S(=O)(c1cncc2ccccc12)N1CCC[C@H]1CCN1CCN(c2cccc3sccc23)CC1 | 62.8 | 63.4 | 2.44 | 276 | 31.6 | 270 | 219.8 | 267 | 64.2 | 62.8 | 126.8 | > 100 | 32 | 2.81 | > 100 | 124 | 31.2 | > 100 | 64.2 | 271 | Time (Cavia porcellus [18]): 235.2 ms; Kp at 0.25 h [19]: 1.69; concentration at 0.5 h [20]: 105 nM; Ki [21]: 0.019 µM; Time (Cavia porcellus [22]): 30.8 ms; Activity (Rattus norvegicus [23]): Non-Toxic; Activity (Cavia porcellus [24]): 256 min⁻¹; minimal effective dose (Rattus norvegicus [25]): 1 mg/kg; Time (Cavia porcellus [26]): 236.6 ms; Kp at 1 h [27]: 2.13; concentration at 0.5 h [28]: 245 nM; Time (Cavia porcellus [29]): 123.6 ms; Time (Cavia porcellus [30]): 31.6 ms; concentration at 0.25 h [31]: 317 nM; Time (Cavia porcellus [32]): 265.6 ms
